# In patent US20120225862A1, “HETEROARYL BENZAMIDES, COMPOSITIONS AND METHODS OF USE” (AUCKLAND UNIVSERVICES LIMITED, priority 2009, published 2012):
# How the values were obtained:
# [1] = target: T1, mTOR (Homo sapiens, UniProt P42345); assay: In vitro kinase activity (Millipore KinaseProfiler): mTOR; type: biochemical; details: no head or unit printed
# T1 construct: purchased Millipore (KinaseProfiler service)
# Experimental: (§1) All cells were grown in DMEM+10% FCS. ACHN and ACHN shVHL were a kind gift from George V. Thomas (UCLA). HIF overexpressing clones were described previously. Transfection of RNA oligos were performed with DnarmaFECT Reagent 1 (Dharmcon), according to manufacturer's directions. ON-TARGETplus SMART pools against HIF-1β/ARNT were purchased from Dharmacon. Glut1 was detected with anti-GLUT1 antibody from NeoMarkers/LabVision/Fisher. Pyruvate/lactate levels and hexokinase activity were both measured by fluorometric assay (BioVision and Sigma-Aldrich, respectively). ATP levels were measured by bioluminescence assay (ATP Determination Kit from Molecular Probes/Invitrogen). In vitro kinase activities were performed by Millipore KinaseProfiler. Affi-Gel 10 (BioRad) activated affinity media was coupled to analogs to generate immobilized affinity linkers.
# (§2) We next wanted to investigate the differential glucose uptake between RCCs with and without VHL treated with compound 47 that subsequently lead to the selective death of VHL-deficient cells. We first examined the message levels of the two main glucose transporters, GLUT1 and GLUT2 by quantitative real-time PCR. GLUT1 is an inducible, high-affinity glucose transporter, while GLUT2 is the glucose transporter responsible for basal glucose uptake. […] Cells deficient in VHL had very low levels of GLUT2 that could barely be detected (FIG. 3J). […]
# [2] = target: T2, PAK2 (Homo sapiens, UniProt Q13177); assay: In vitro kinase activity (Millipore KinaseProfiler): PAK2; type: biochemical; details: no head or unit printed
# T2 construct: purchased Millipore (KinaseProfiler service)
# Experimental: as §1, §2
# [3] = target: T3, Aurora-A (Homo sapiens, UniProt O14965); assay: In vitro kinase activity (Millipore KinaseProfiler): Aurora-A; type: biochemical; details: no head or unit printed
# T3 construct: purchased Millipore (KinaseProfiler service)
# Experimental: as §1, §2
# [4] = target: T4, IRAK1 (Homo sapiens, UniProt P51617); assay: In vitro kinase activity (Millipore KinaseProfiler): IRAK1; type: biochemical; details: no head or unit printed
# T4 construct: purchased Millipore (KinaseProfiler service)
# Experimental: as §1, §2
# [5] = target: T5, Fyn (Homo sapiens, UniProt P06241); assay: In vitro kinase activity (Millipore KinaseProfiler): Fyn; type: biochemical; details: no head or unit printed
# T5 construct: purchased Millipore (KinaseProfiler service)
# Experimental: as §1, §2
# [6] = tested on: RCC4; assay: Necrotic cell death by trypan blue, RCC4; type: cell-based, human; details: 3 days, 5 μM, FIG. 2F
# Experimental: For 2,3-bis[2-methoxy-4-nitro-5-sulfophenyl]-2H-tetrazolium-5-carboxanilide (XTT) assays, five thousand cells were plated in 96-well plates. The next day, vehicle (DMSO) or drug was added by serial dilution. Four days later, media were aspirated, XTT solution (0.3 mg/ml of XTT (Sigma), 2.65 mg/ml N-methyl dibenxopyrazine methyl sulfate (Simga) in phenol red-free media) was added, and the plates were incubated at 37° C. for 1-2 hours. Metabolism of XTT was quantified by measuring the absorbance at 450 nm. IC50s were calculated using linear interpolation. For clonogenic survival assays, three hundred cells were plated per 60 mm tissue culture dish. The cells were allowed to attach overnight and then treated with vehicle or drug for 14 days. Colonies were fixed and stained with crystal violet (0.1% crystal violet in 95% ethanol). All conditions were measured in triplicate and each experiment was done in duplicate or triplicate. To determine necrosis, cells were treated with drug for a given time point. Media and cells were collected, centrifugated, and resuspended in 0.4% trypan blue (Invitrogen). Live and dead cells were counted on a hematocytometer.
# [7] = target: T6, GSK3α (Homo sapiens, UniProt P49840); assay: In vitro kinase activity (Millipore KinaseProfiler): GSK3α; type: biochemical; details: no head or unit printed
# T6 construct: purchased Millipore (KinaseProfiler service)
# Experimental: as §1, §2
# [8] = tested on: RCC4; assay: Lactate production (glycolysis), RCC4; type: cell-based; details: Homo sapiens; RCC4, 5 μM, compared to control-treated cells; read-out: inhibition of lactate production in VHL-deficient cells
# Experimental: as §1
# As the central mediator of oxygen homeostasis, HIF plays an important role in the cellular adaptation to low oxygen conditions through the regulation of genes involved in metabolism and energy production. Inactivation of VHL results in an increase in the half-life of HIF protein. […] To examine whether this compound alters the rate of glycolysis in VHL-deficient cells, we measured the intracellular production of lactate, which is rapidly converted from pyruvate, the end-product of glycolysis. […]
# T6 sequence (P49840 whole entry, species assumed): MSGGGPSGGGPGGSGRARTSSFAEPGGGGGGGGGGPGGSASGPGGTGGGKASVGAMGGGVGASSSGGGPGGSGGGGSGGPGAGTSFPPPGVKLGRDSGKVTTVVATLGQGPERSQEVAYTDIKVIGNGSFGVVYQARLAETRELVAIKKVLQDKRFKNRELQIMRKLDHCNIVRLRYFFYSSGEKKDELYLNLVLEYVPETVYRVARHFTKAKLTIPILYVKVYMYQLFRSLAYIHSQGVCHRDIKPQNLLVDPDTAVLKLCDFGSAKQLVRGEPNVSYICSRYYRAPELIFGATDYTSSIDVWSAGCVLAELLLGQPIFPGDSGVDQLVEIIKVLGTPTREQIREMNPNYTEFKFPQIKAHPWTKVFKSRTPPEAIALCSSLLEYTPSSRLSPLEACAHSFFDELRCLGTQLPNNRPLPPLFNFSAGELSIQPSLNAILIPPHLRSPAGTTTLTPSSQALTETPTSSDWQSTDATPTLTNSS
# T3 sequence (O14965 whole entry): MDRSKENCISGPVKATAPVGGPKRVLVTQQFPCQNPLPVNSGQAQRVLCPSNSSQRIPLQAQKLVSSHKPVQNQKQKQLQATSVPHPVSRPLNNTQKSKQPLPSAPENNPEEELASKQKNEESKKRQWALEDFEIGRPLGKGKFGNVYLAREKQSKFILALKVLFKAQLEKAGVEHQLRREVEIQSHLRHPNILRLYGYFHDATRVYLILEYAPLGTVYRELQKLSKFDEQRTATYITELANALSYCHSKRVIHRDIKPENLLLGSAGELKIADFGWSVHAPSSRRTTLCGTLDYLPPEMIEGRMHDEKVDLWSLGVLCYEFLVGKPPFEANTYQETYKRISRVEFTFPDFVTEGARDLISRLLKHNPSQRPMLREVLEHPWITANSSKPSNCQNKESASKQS
# T2 sequence (Q13177 whole entry, species assumed): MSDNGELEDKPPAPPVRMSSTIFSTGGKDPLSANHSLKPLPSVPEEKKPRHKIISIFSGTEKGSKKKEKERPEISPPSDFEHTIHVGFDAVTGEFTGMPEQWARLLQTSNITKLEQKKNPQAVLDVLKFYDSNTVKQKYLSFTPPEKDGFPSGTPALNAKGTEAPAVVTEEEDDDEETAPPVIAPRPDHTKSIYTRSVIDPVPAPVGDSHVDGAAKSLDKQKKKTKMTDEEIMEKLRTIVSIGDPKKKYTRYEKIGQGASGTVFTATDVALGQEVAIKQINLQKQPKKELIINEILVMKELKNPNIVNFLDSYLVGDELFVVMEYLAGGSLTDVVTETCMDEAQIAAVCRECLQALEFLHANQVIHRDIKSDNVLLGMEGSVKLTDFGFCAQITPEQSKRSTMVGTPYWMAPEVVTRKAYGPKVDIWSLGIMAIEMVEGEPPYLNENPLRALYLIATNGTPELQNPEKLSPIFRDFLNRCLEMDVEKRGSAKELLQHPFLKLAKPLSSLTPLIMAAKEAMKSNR
# T4 sequence (P51617 whole entry, species assumed): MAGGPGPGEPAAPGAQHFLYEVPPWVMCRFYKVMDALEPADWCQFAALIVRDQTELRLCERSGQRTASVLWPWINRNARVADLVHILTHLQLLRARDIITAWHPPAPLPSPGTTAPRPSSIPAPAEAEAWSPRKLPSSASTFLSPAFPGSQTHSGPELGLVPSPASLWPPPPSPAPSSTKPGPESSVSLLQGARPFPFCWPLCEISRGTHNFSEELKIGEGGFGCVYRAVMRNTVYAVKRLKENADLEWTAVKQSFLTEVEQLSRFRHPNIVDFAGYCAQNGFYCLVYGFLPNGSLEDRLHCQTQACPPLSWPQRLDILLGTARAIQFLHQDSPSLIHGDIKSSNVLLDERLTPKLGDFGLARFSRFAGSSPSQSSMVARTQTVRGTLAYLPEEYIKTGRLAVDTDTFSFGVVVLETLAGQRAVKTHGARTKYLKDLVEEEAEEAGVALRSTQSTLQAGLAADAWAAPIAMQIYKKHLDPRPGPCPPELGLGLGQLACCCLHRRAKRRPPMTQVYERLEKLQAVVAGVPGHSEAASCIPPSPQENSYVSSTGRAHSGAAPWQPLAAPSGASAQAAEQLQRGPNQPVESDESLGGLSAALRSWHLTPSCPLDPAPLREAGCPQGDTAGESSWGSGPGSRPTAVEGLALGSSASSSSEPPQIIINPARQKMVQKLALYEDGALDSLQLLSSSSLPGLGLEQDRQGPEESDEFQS
# T5 sequence (P06241 whole entry, species assumed): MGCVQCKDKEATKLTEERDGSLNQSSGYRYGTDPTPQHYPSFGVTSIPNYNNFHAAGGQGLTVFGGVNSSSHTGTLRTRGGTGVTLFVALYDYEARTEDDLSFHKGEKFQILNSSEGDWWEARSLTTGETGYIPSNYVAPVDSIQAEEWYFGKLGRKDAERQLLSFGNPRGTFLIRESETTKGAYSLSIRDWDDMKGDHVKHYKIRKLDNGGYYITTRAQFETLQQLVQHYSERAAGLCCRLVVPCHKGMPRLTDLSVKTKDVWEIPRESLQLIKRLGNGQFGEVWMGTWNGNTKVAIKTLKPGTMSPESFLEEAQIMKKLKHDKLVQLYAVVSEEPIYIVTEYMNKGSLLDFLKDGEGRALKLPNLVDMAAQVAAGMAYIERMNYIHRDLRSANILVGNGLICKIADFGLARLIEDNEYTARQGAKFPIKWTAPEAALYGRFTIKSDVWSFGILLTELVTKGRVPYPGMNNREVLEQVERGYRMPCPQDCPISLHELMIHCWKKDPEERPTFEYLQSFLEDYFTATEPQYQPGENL
compound,measurement,setting,value
"CC(C)(C)c1ccc(S(=O)(=O)NCc2ccc(C(=O)Nc3cccnc3)cc2)cc1 [Example 38, 4-((4-tert-Butylphenylsulfonamido)methyl)-N-(pyridin-3-yl)benzamide]",mTOR kinase activity,[1],101
same,PAK2 kinase activity,[2],97%
same,Aurora-A kinase activity,[3],108%
same,IRAK1 kinase activity,[4],105%
same,Fyn kinase activity,[5],91%
same,RCC4 cells exhibiting necrotic cell death,[6],greater than 80%
same,GSK3α kinase activity,[7],134
same,inhibition at 5 µM,[8],~60%
